Measured values taken from US8835503B2, “Pharmaceutical composition containing GLUR2-lacking AMPAR antagonist for preventing or treating psychiatric illnesses” (SNU R&DB Foundation, priority 2009, dated 2014).

System: fear memory renewal
Assay: Blocking of fear memory renewal by NASPM administered into the amygdala (freezing response)
Assay type: in vivo, rat
Settings: for fear responses (freezing) in memory renewal test: 15 minutes before measuring fear memory, vs control group
Description: For fear memory learning, the rats were exposed to sound stimuli of a single tone (2.8 kHz, 85 dB) for 30 seconds, and subjected to an electric foot shock (1.0 mA) for 1 second at the end of said 30-second period. The sound stimuli and the electric foot shock were repeated 3 times at 100 second intervals. 1 minute later after the last electric foot shock, the rats were returned to their home cages. On day 2, fear memory learning was performed in the same way.
From day 3, memory extinction was performed in a context different from that of the fear memory learning On day 4, the rats were exposed to only sound stimuli 20 times at 100 second intervals without an electric foot shock. On days 5 and 6, the sound stimuli were repeated 15 times at 100 second intervals.
On day 7, memory renewal test was performed. The rats experienced memory extinction were placed in the place of the fear memory learning for 10 minutes, and then, memory renewal was induced by exposing the rats to sound stimuli for 30 seconds.
The experiment was performed using the rats which experienced fear memory learning, memory extinction and memory renewal in accordance with the method described in Example 1-1. White rats, 8-9 weeks old (Sprague-Dawley Rat, Male; Samtako, Korea), were used.
The rats were anesthetized by intraperitoneal injection of pentobarbital sodium (50 mg/kg; Entobal, Hanlim Pharma, Co., Ltd., Korea). After fully anesthetized, the rats were mounted on a stereotaxic apparatus (David Kopf Instruments, Tujunga, Calif., USA), and then, stainless steel cannulas of 26 gauge (Model C315G, Plastic Products, Roanoke, Va., USA) were implanted bilaterally into the amygdala (AP; […], ML; +/−5.15, DV; −7.0 mm) by operation. A 32 gauge dummy cannula was inserted into each cannula to prevent clogging. After a recovery period of at least 1 week, the rats were subjected to fear memory learning, memory extinction and memory renewal tests. […]
Conditioned freezing was defined as immobility except for respiratory movements, and was quantified by trained observers that were blind to the experimental groups.

Question: Which “fear responses (freezing) in memory renewal test” value (10 μg NASPM into the amygdala) does the source give for N-naphthylspermine [NASPM] here?
Answer: The value was “insignificant effect”.

Question: And the “fear responses (freezing) in memory renewal test” value (40 μg NASPM into the amygdala)?
Answer: Its value is “remarkably less fear responses”.

Question: What about the “blocking of fear memory renewal” value (administered in the amygdala, 10 μg and 40 μg) of the same substance?
Answer: Its value is “blocks the fear memory renewal in a concentration-dependent manner”.
